Results from ChEMBL document CHEMBL1201862, “PubChem BioAssay data set” (2004).
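Dose response: 5 concentrations. Exposure: 48 h. Format: 96-well plates. Endpoint: linear interpolation; highest concentration if not reached. GI50 = concentration required for 50% inhibition of growth.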 The source made the active and inactive calls. No stated cut-off is given here; in the data, active = GI50 up to about 1.1 µM and inactive = higher.

Columns and labels:
Assay in all cases: inhibition of tumour cell growth, NCI panel, 48 h
LXFL 529 = system: LXFL 529
DLD-1 = system: DLD-1
XF498 = system: XF498
M19-MEL = system: M19-MEL
DMS-114 = system: DMS-114
DMS-273 = system: DMS-273
HOP-18 = system: HOP-18
KM-20L2 = system: KM-20L2
RXF 631 = system: RXF 631

Compound	GI50 (LXFL 529)	GI50 (DLD-1)	GI50 (XF498)	GI50 (M19-MEL)	GI50 (DMS-114)	GI50 (DMS-273)	GI50 (HOP-18)	GI50 (KM-20L2)	GI50 (RXF 631)
O=C1CNS(=O)(=O)N1	> 100 µM (inactive)	> 100 µM (inactive)	> 100 µM (inactive)	> 100 µM (inactive)	> 100 µM (inactive)	> 100 µM (inactive)	–	–	–
OCCC1(O)CCC(O)CC1 (configuration not stated)	> 100 µM (inactive)	> 100 µM (inactive)	–	> 100 µM (inactive)	> 100 µM (inactive)	> 100 µM (inactive)	> 100 µM (inactive)	–	–
O=C(/C=C/c1ccccc1F)c1ccc(Cl)c(Cl)c1	18.3 µM (inactive)	23.9 µM (inactive)	28.5 µM (inactive)	24 µM (inactive)	24 µM (inactive)	35.1 µM (inactive)	16.4 µM (inactive)	36.3 µM (inactive)	> 53.7 µM (inactive)
O=C1C(O)=C(CCCc2ccc(Oc3ccccc3)cc2)C(=O)c2ccccc21	4.98 µM (inactive)	10.4 µM (inactive)	9.02 µM (inactive)	7.13 µM (inactive)	4.73 µM (inactive)	3.89 µM (inactive)	–	31.3 µM (inactive)	–
CCCCCCCCCc1cc(=O)c2ccc(OCc3ccccc3)cc2o1	73.8 µM (inactive)	> 100 µM (inactive)	> 100 µM (inactive)	69.7 µM (inactive)	92.9 µM (inactive)	> 100 µM (inactive)	> 100 µM (inactive)	> 100 µM (inactive)	–
O=C(CC(=O)c1ccccc1)C(=O)Nc1ccc(Cl)cc1	> 100 µM (inactive)	> 58.9 µM (inactive)	> 100 µM (inactive)	–	> 40.4 µM (inactive)	> 56.5 µM (inactive)	> 100 µM (inactive)	> 100 µM (inactive)	–
C[C@]12CCCC(=O)C1(O)C[C@H](C(=O)O)CC2 (some centres not stated)	> 100 µM (inactive)	> 100 µM (inactive)	> 100 µM (inactive)	> 100 µM (inactive)	> 100 µM (inactive)	> 100 µM (inactive)	> 100 µM (inactive)	> 100 µM (inactive)	> 100 µM (inactive)
OC1(c2ccccc2)OC(C#Cc2ccccc2)(c2ccccc2)c2ccccc21 (configuration not stated)	6.22 µM (inactive)	3.06 µM (inactive)	7.26 µM (inactive)	3.23 µM (inactive)	3.13 µM (inactive)	3.4 µM (inactive)	–	3.33 µM (inactive)	3.13 µM (inactive)
N#CC1([N+](=O)[O-])C=C1c1ccccc1 (configuration not stated)	32.1 µM (inactive)	8.81 µM (inactive)	–	56.1 µM (inactive)	48.6 µM (inactive)	> 100 µM (inactive)	–	> 100 µM (inactive)	> 100 µM (inactive)
CCOC(=O)c1c2cccccc2n2c(=O)cc(C)nc12	> 100 µM (inactive)	–	–	–	–	> 100 µM (inactive)	–	> 100 µM (inactive)	–
O=C(CC(=O)N1N=C(n2ccc3ccccc32)CC1c1ccccc1)Nc1ccc(Cl)cc1 (configuration not stated)	> 100 µM (inactive)	> 100 µM (inactive)	–	> 100 µM (inactive)	> 100 µM (inactive)	> 100 µM (inactive)	> 100 µM (inactive)	> 100 µM (inactive)	> 100 µM (inactive)
c1ccc(C2N=NN(c3ccccc3)C2N2CCCCC2)cc1 (configuration not stated)	> 100 µM (inactive)	> 100 µM (inactive)	49.5 µM (inactive)	> 100 µM (inactive)	> 100 µM (inactive)	–	–	> 100 µM (inactive)	–
Cc1cccc(C)c1NC(=O)C(C#N)C1=C(Cl)C(=O)c2ccccc2C1=O (configuration not stated)	16.1 µM (inactive)	8.15 µM (inactive)	15.5 µM (inactive)	4.55 µM (inactive)	15.3 µM (inactive)	30.5 µM (inactive)	12.7 µM (inactive)	24.1 µM (inactive)	15.4 µM (inactive)
COc1ccccc1NC(=O)C1=C(C)NC(C)=C(C(=O)Nc2ccccc2OC)C1/C=C/c1ccccc1	84.9 µM (inactive)	> 100 µM (inactive)	–	> 100 µM (inactive)	61.7 µM (inactive)	> 100 µM (inactive)	> 100 µM (inactive)	> 100 µM (inactive)	–
Cc1ccc(NC(=O)CC2SC(Nc3cccc(Cl)c3C)=NC2=O)cc1 (configuration not stated)	32.4 µM (inactive)	48.8 µM (inactive)	46.2 µM (inactive)	71 µM (inactive)	29.9 µM (inactive)	> 100 µM (inactive)	–	70.8 µM (inactive)	> 100 µM (inactive)
COc1cccc2c1C(=O)c1c(O)c3c(c(O)c1C2=O)C[C@@](O)(C(=O)CO)CC3OC1CC(N(C)CCOCC(OC(C)=O)OC(C)=O)C(O)C(C)O1 (some centres not stated)	> 0.01 µM (active)	> 0.01 µM (active)	> 0.01 µM (active)	> 0.01 µM (active)	> 0.01 µM (active)	–	> 0.01 µM (active)	> 0.01 µM (active)	–
NC(CCSCC(F)(F)F)C(=O)O (configuration not stated)	> 100 µM (inactive)	> 100 µM (inactive)	–	> 100 µM (inactive)	> 100 µM (inactive)	> 100 µM (inactive)	> 100 µM (inactive)	> 100 µM (inactive)	–
Cc1nc(=O)n2c(C)n[nH]c2c1C(=O)Nc1cc(Cl)cc(Cl)c1	29.8 µM (inactive)	19.1 µM (inactive)	–	27.3 µM (inactive)	–	–	–	–	–
CC1CCCC(C(=O)/C(=C/c2cccc(Cl)c2)C(=O)C(=O)O)C1 (configuration not stated)	19.7 µM (inactive)	20 µM (inactive)	–	18.7 µM (inactive)	21 µM (inactive)	34.8 µM (inactive)	91 µM (inactive)	25.9 µM (inactive)	–
CC1CCC23COC(=O)C2C(O)CCC3C1(C)CC(O)c1ccoc1 (configuration not stated)	> 100 µM (inactive)	> 100 µM (inactive)	> 100 µM (inactive)	> 100 µM (inactive)	> 100 µM (inactive)	–	> 100 µM (inactive)	> 100 µM (inactive)	–
c1ccc2c(c1)CCc1c(-c3ccncc3)n[nH]c1-2	23.7 µM (inactive)	41.9 µM (inactive)	0.583 µM (active)	21.4 µM (inactive)	17.2 µM (inactive)	22.9 µM (inactive)	–	23.6 µM (inactive)	> 10 µM (inactive)
